Source: patent US20230167088A1, “1-PYRAZINYLPYRAZOLYL-3-OXYALKYL ACIDS AND THEIR DERIVATIVES, AND THEIR USE FOR CONTROL OF UNDESIRED PLANT GROWTH” (BAYER AKTIENGESELLSCHAFT, priority 2020, published 2023)

Assays:
ECHCG [1] = assay: Herbicidal post-emergence action 1a (greenhouse pots, visual rating); assay type: in vivo, Echinochloa crus-galli; details: rated visually about 3 weeks after treatment, 100% = plants have died, 0% = like control plants
In short: (§1)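 Weeds and crops sown in sandy loam in greenhouse pots were sprayed post-emergence at the one-leaf stage (2–3 weeks after sowing) with WP or EC formulations plus 0.5% additive at 600 l/ha water, 320 and/or 80 g/ha. About 3 weeks later damage was rated visually against untreated controls (0% = no effect, 100% = dead).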

VERPE [2] = assay: as above; assay type: in vivo, Veronica persica; details: dosage 320 g/ha, visual rating about 3 weeks after treatment
In short: as §1

DIGSA [3] = assay: Herbicidal pre-emergence action 2a (greenhouse pots, visual scoring); assay type: in vivo, Digitaria sanguinalis; details: dosage 320 g/ha, visual scoring after about 3 weeks
In short: (§2)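 Pre-emergence soil-surface spray: WP/EC, 0.5% additive, 600 l/ha water, 320 and/or 80 g/ha. Greenhouse ~3 wk. Visual % damage vs untreated (100% = plants dead, 0% = like control).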

ECHCG [4] = assay: Herbicidal post-emergence action 1b (twin sowing, 1280 g/ha); assay type: in vivo, Echinochloa crus-galli; details: dosage 1280 g/ha, visual rating about 3 weeks after treatment
In short: (§3)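 Sow paired weed species in sandy loam pots and grow in the greenhouse; at the one-leaf stage (2–3 weeks) spray green parts with compound suspension or emulsion containing 0.5% additive at 600 L water/ha; keep about 3 weeks, then score damage visually relative to untreated plants.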

POAAN [5] = assay: Herbicidal pre-emergence action 2b (doubly sown, 1280 g/ha); assay type: in vivo, Poa annua; details: doubly sown pots, dosage 1280 g/ha, visual scoring after about 3 weeks
In short: (§4)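 Read-out: visual percentage damage relative to untreated controls, scored after roughly 3 weeks in the greenhouse, where 100% means plants died and 0% equals control. Seeds were sown two species per pot in sandy loam and covered before the compounds, formulated as WP or EC with 0.5% additive, were sprayed onto the soil at 600 L/ha.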

AMARE [6] = assay: as above; assay type: in vivo, Amaranthus retroflexus; details: doubly sown pots, dosage 1280 g/ha, visual scoring after about 3 weeks
In short: as §4

POAAN [7] = assay: Herbicidal post-emergence action 1b (twin sowing, 1280 g/ha); assay type: in vivo, Poa annua; details: dosage 1280 g/ha, visual rating about 3 weeks after treatment
In short: as §3

MATIN [8] = assay: Herbicidal post-emergence action 1a (greenhouse pots, visual rating); assay type: in vivo, Matricaria inodora; details: dosage 320 g/ha, visual rating about 3 weeks after treatment
Description: (§5) [table] a) Seeds of monocotyledonous and dicotyledonous weeds and crop plants are placed in sandy loam in plastic or organic plant pots, covered with soil and cultivated in a greenhouse under controlled growth conditions. 2 to 3 weeks after sowing, the test plants are treated at the one-leaf stage. The compounds of the invention, formulated in the form of wettable powders (WP) or as emulsion concentrates (EC), are then sprayed onto the green parts of the plants as aqueous suspension or emulsion with addition of 0.5% additive at a water application rate of 600 1/ha (converted). After the test plants have been kept in the greenhouse under optimum growth conditions for about 3 weeks, the activity of the preparations is rated visually in comparison to untreated controls. For example, 100% activity=the plants have died, 0% activity=like control plants. Tables A1 to A15 below show the effects of selected compounds of the general formula (I) according to Tables 1 and 2 on various harmful plants and an application rate corresponding to 320 g/ha and/or 80 g/ha, which were obtained by the experimental procedure mentioned above.

AMARE [9] = assay: Herbicidal pre-emergence action 2a (greenhouse pots, visual scoring); assay type: in vivo, Amaranthus retroflexus; details: dosage 320 g/ha, visual scoring after about 3 weeks vs untreated controls
In short: as §2

AMARE [10] = assay: Herbicidal post-emergence action 1a (greenhouse pots, visual rating); assay type: in vivo, Amaranthus retroflexus; details: dosage 320 g/ha, visual rating about 3 weeks after treatment
In short: as §1

STEME [11] = assay: as above; assay type: in vivo, Stellaria media; details: Dosage 320 g/ha; rated visually about 3 weeks after treatment; 100% = plants have died, 0% = like control plants
Description: as §5

MATIN [12] = assay: Herbicidal pre-emergence action 2b (doubly sown, 1280 g/ha); assay type: in vivo, Matricaria inodora; details: doubly sown pots, dosage 1280 g/ha, visual scoring after about 3 weeks
In short: as §4

VERPE [13] = assay: Herbicidal pre-emergence action 2a (greenhouse pots, visual scoring); assay type: in vivo, Veronica persica; details: dosage 320 g/ha, visual scoring after about 3 weeks vs untreated controls
In short: as §2

ECHCG [14] = assay: Herbicidal pre-emergence action 2b (doubly sown, 1280 g/ha); assay type: in vivo, Echinochloa crus-galli; details: doubly sown pots, dosage 1280 g/ha, visual scoring after about 3 weeks
In short: as §4

VIOTR [15] = assay: Herbicidal post-emergence action 1a (greenhouse pots, visual rating); assay type: in vivo, Viola tricolor; details: dosage 320 g/ha, visual rating about 3 weeks after treatment
In short: as §1

MATIN [16] = assay: Herbicidal pre-emergence action 2a (greenhouse pots, visual scoring); assay type: in vivo, Matricaria inodora; details: dosage 320 g/ha, visual scoring after about 3 weeks vs untreated controls
In short: as §2

MATIN [17] = assay: Herbicidal post-emergence action 1b (twin sowing, 1280 g/ha); assay type: in vivo, Matricaria inodora; details: dosage 1280 g/ha, visual rating about 3 weeks after treatment
In short: as §3

STEME [18] = assay: as above; assay type: in vivo, Stellaria media; details: dosage 1280 g/ha, visual rating about 3 weeks after treatment
In short: as §3

PHBPU [19] = assay: Herbicidal post-emergence action 1a (greenhouse pots, visual rating); assay type: in vivo, Pharbitis purpurea; details: visual rating about 3 weeks after treatment
In short: as §1

ALOMY [20] = assay: as above; assay type: in vivo, Alopecurus myosuroides; details: rated visually about 3 weeks after treatment, 100% = plants have died, 0% = like control plants
In short: as §1

STEME [21] = assay: Herbicidal pre-emergence action 2b (doubly sown, 1280 g/ha); assay type: in vivo, Stellaria media; details: doubly sown pots, dosage 1280 g/ha, visual scoring after about 3 weeks
In short: as §4

DIGSA [22] = assay: as above; assay type: in vivo, Digitaria sanguinalis; details: doubly sown pots, dosage 1280 g/ha, visual scoring after about 3 weeks
In short: as §4

PHBPU [23] = assay: Herbicidal pre-emergence action 2a (greenhouse pots, visual scoring); assay type: in vivo, Pharbitis purpurea; details: dosage 320 g/ha, visual scoring after about 3 weeks vs untreated controls
Excerpt: [table] a) Seeds of monocotyledonous and dicotyledonous weed plants and crop plants are placed in plastic or organic plant pots and covered with soil. The compounds of the invention, formulated in the form of wettable powders (WP) or as emulsion concentrates (EC), are then applied onto the surface of the covering soil as aqueous suspension or emulsion with addition of 0.5% additive at a water application rate of 600 1/ha (converted). After the treatment, the pots are placed in a greenhouse and kept under good growth conditions for the trial plants. After about 3 weeks, the effect of the preparations is scored visually in comparison with untreated controls as percentages. For example, 100% activity=the plants have died, 0% activity=like control plants. Tables B1 to B15 below show the effects of selected compounds of the general formula (I) according to Tables 1 and 2 on various harmful plants and an application rate corresponding to 320 g/ha and/or 80 g/ha, which were obtained by the experimental procedure mentioned above.

ECHCG [24] = assay: as above; assay type: in vivo, Echinochloa crus-galli; details: dosage 320 g/ha, visual scoring after about 3 weeks
In short: as §2

LOLRI = assay: as above; assay type: in vivo, Lolium rigidum; details: dosage 320 g/ha, visual scoring after about 3 weeks vs untreated controls
In short: as §2

ABUTH = assay: Herbicidal post-emergence action 1b (twin sowing, 1280 g/ha); assay type: in vivo, Abutilon theophrasti; details: dosage 1280 g/ha, visual rating about 3 weeks after treatment
Description: [table] b) Seeds of mono- and dicotyledonous weed plants are placed in plastic pots in sandy loam soil (twin sowing with one species each of mono- or dicotyledonous weed plants per pot), covered with soil and cultivated in a greenhouse under controlled growth conditions. 2 to 3 weeks after sowing, the test plants are treated at the one-leaf stage. The compounds of the invention, formulated in the form of wettable powders (WP) or as emulsion concentrates (EC), are applied to the green parts of the plants as aqueous suspension or emulsion with addition of 0.5% additive at a water application rate equivalent to 600 litres per hectare. After the test plants have been kept in the greenhouse under optimum growth conditions for about 3 weeks, the activity of the preparations is rated visually in comparison to untreated controls. For example, 100% activity=the plants have died, 0% activity=like control plants. Tables A16 to A21 below show the effects of selected compounds of the general formula (I) according to Tables 1 and 2 on various harmful plants and at an application rate corresponding to 1280 g/ha, which were obtained by the experimental procedure mentioned above.

VIOTR [25] = assay: Herbicidal pre-emergence action 2a (greenhouse pots, visual scoring); assay type: in vivo, Viola tricolor; details: dosage 320 g/ha, visual scoring after about 3 weeks vs untreated controls
In short: as §2

AVEFA = assay: as above; assay type: in vivo, Avena fatua; details: dosage 320 g/ha, visual scoring after about 3 weeks
In short: as §2

SETVI = assay: as above; assay type: in vivo, Setaria viridis; details: dosage 320 g/ha, visual scoring after about 3 weeks vs untreated controls
In short: as §2

DIGSA [26] = assay: Herbicidal post-emergence action 1b (twin sowing, 1280 g/ha); assay type: in vivo, Digitaria sanguinalis; details: dosage 1280 g/ha, visual rating about 3 weeks after treatment
In short: as §3

ALOMY [27] = assay: Herbicidal pre-emergence action 2a (greenhouse pots, visual scoring); assay type: in vivo, Alopecurus myosuroides; details: dosage 320 g/ha, visual scoring after about 3 weeks
In short: as §2

SMILES | Post-emergence action at 1280 g/ha against ECHCG in % (ECHCG [4]) | Pre-emergence action at 1280 g/ha against POAAN in % (POAAN [5]) | Pre-emergence action at 1280 g/ha against AMARE in % (AMARE [6]) | Post-emergence action at 1280 g/ha against POAAN in % (POAAN [7]) | Pre-emergence action against AMARE in % (AMARE [9]) | Pre-emergence action at 1280 g/ha against MATIN in % (MATIN [12]) | Pre-emergence action against VERPE in % (VERPE [13]) | Pre-emergence action at 1280 g/ha against ECHCG in % (ECHCG [14]) | Pre-emergence action against MATIN in % (MATIN [16]) | Post-emergence action at 1280 g/ha against MATIN in % (MATIN [17]) | Post-emergence action at 1280 g/ha against STEME in % (STEME [18]) | Pre-emergence action at 1280 g/ha against STEME in % (STEME [21]) | also measured
CCOC(=O)COc1nn(-c2cnccn2)c(-c2cccc(F)c2)c1Br [Example I-02] | 90% | 100% | 100% | 90% | 100% | 100% | 100% | 100% | 90% | 90% | 90% | 100% | Post-emergence action against ECHCG in % (ECHCG [1]; Dosage 320 g/ha): 80%; Post-emergence action against VERPE in % (VERPE [2]): 80%; Pre-emergence action against DIGSA in % (DIGSA [3]): 90%; Post-emergence action against MATIN in % (MATIN [8]): 80%; Post-emergence action against AMARE in % (AMARE [10]): 80%; Post-emergence action against STEME in % (STEME [11]): 80%; Post-emergence action against VIOTR in % (VIOTR [15]): 80%; Post-emergence action against PHBPU in % (PHBPU [19]; dosage 320 g/ha): 90%; Post-emergence action against ALOMY in % (ALOMY [20]; Dosage 320 g/ha): 80%
COCCOC(=O)COc1nn(-c2cnccn2)c(-c2ccc(F)nc2)c1Br [Example I-68] | 100% | 100% | 100% | 100% | 100% | 100% | 90% | 100% | 90% | 90% | 100% | 100% | Pre-emergence action at 1280 g/ha against DIGSA in % (DIGSA [22]): 100%; Post-emergence action against ECHCG in % (ECHCG [1]; Dosage 80 g/ha): 80%; Pre-emergence action against PHBPU in % (PHBPU [23]): 80%; Pre-emergence action against ECHCG in % (ECHCG [24]): 90%; Pre-emergence action against LOLRI in % (LOLRI): 80%; Post-emergence action at 1280 g/ha against ABUTH in % (ABUTH): 100%; Pre-emergence action against VIOTR in % (VIOTR [25]): 90%; Pre-emergence action against AVEFA in % (AVEFA): 90%; Pre-emergence action against SETVI in % (SETVI): 100%; Post-emergence action at 1280 g/ha against DIGSA in % (DIGSA [26]): 100%; Post-emergence action against PHBPU in % (PHBPU [19]; dosage 80 g/ha): 80%; Post-emergence action against ALOMY in % (ALOMY [20]; Dosage 80 g/ha): 80%; Pre-emergence action against ALOMY in % (ALOMY [27]): 100%
